For 14 compounds, TGI and GI50 results are on record in PubChem BioAssay (NCI).

Assay in all cases: NCI tumour cell line growth inhibition, 48 h
For test [1], the system named is SK-OV-3 ovarian.
The subject of test [2] is HOP-62 NSCLC.
The test system of test [3] is SR leukemia.
Test [4] has as its system TK-10 renal.
Test [5] has as its system NCI-H522 lung.
For test [6], the system named is CAKI-1 renal.
The subject of test [7] is HL-60(TB) leukemia.
In test [8] the test system is LOX IMVI melanoma.
For test [9], the system named is M19-MEL melanoma.
For test [10], the system named is DMS 273 small cell lung.
Test [11] relates to XF 498 CNS.
Test [12] concerns SNB-78 CNS.

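All cell lines were grown in 96-well plates and treated with compound for 48 hours. Here, GI50 denotes the concentration required for 50% inhibition of growth. TGI: total growth inhibition.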 Bounds are passed on as bounds.

For `CC(=O)Oc1ccc2c(c1)oc1c3ccc(OC(C)=O)cc3n(C)c(=O)c21`, the TGI in test [1], in test [2], in test [3] and in test [4] was more than 100 µM each time.

In the case of `O=[N+]([O-])c1ccccc1NC1c2ccccc2Oc2ccccc21`, the GI50 in test [5] is 3.84 µM; in test [6], 11 µM; in test [7] it was 2.8 µM; in test [2], 8.07 µM; in test [8], 5.52 µM; in test [3], 3.32 µM. For the same compound, in test [4], the GI50 is 29.1 µM. Further, the TGI was more than 100 µM in test [5]; more than 100 µM in test [6]; 7.09 µM in test [7]; more than 100 µM in test [2]; more than 100 µM in test [8]; more than 100 µM in test [3]. Further, the TGI in test [4] is more than 100 µM.

Turning to `CCN(CC)CCCNc1ncc(C)c2[nH]c3ccncc3c12`, the TGI in test [5] was 22.8 µM; in [1], 15.9 µM; in test [7], more than 31.6 µM; in [9] it was 28 µM; in test [2], 79.5 µM; in test [8], 14.9 µM. In addition, the TGI in test [10] is 25.8 µM; in [11], 24 µM; in [12], more than 100 µM.

Turning to `COC(=O)c1cccc(N[C@@H]2c3cc4c(cc3C(c3cc(OC)c(O)c(OC)c3)[C@H]3C(=O)OCC32)OCO4)c1` (stereo partly drawn), the TGI in test [5] was 8.75 µM; in test [1] it was 23.6 µM; in [6], 2.91 µM; in [7] it was 1.1 µM; in test [9], more than 100 µM; in test [2], 0.937 µM. For the same compound, the TGI in test [8] is 11.3 µM; in test [10], 3.35 µM; in test [11], more than 27.4 µM; in test [12], 98.7 µM.

As to `N=C(N)c1ccc(-c2ccc(-c3ccccc3)s2)cc1`, the GI50 in test [1] was 2.42 µM; in test [6] it was 1.58 µM; in [3] it was 0.668 µM. The TGI was 7.27 µM in [1], 2.92 µM in [6] and 4.13 µM in [3].

As for `S=P1(N2CCCCC2)Oc2ccc3ccccc3c2-c2c(ccc3ccccc23)O1`, the TGI in test [5], in test [1], in test [6], in [7], in test [9] and in test [2] was more than 100 µM each time. Also, the TGI in test [8], in test [10], in [11] and in test [12] was more than 100 µM in each case.

As for `CCCCCCCC/C=C\CCCCCCCC(=O)O`, the TGI in test [5] is 210 µM; in test [1] it was more than 500 µM; in test [6], 206 µM; in test [7] it was 290 µM; in test [9], 183 µM; in test [2], more than 500 µM. Further, the TGI is 239 µM in [8], 210 µM in test [10], 13.6 µM in test [11] and 130 µM in test [12].

For `Cc1cc(C)c2c(c1)CC1(Cc3c(C)ccc(C)c3C1=O)C2=O` (stereo not drawn), the TGI in test [5], in test [6], in test [7], in test [3] and in test [4] was more than 100 µM throughout.

Consider `O=C(O)CS`, for which the TGI in [5], in test [1], in test [6], in test [7], in test [9] and in test [8] was more than 100 µM throughout. In addition, the TGI in test [3], in test [10], in test [11], in test [12] and in [4] was more than 100 µM each time.

With `COc1cc(/C=C/c2cc(/C=C/c3ccc(O)c(OC)c3)nc(N)n2)ccc1O`, the GI50 in test [5] is 1.24 µM; in test [1], 2.6 µM; in test [6], 2.23 µM; in [7] it was 2.18 µM; in test [3] it was 0.72 µM; in [4], 3.39 µM. Besides, the TGI in [5] amounted to 2.79 µM; in test [1], 8.23 µM; in [6] it was 6.46 µM; in test [7], 6.17 µM; in [3], 3.58 µM; in test [4], 9.54 µM.

Take `CCNc1nnc(-c2nsc3ccccc23)s1`: the TGI in test [7], in test [9], in test [2], in test [8], in [3] and in test [10] was more than 100 µM each time. In addition, the TGI in test [12] and in [4] was more than 100 µM throughout.

As to `O=C1C=CC2=[N+]([O-])C(c3ccccc3)(c3ccccc3)C(=Nc3ccccc3)C2=C1`, the TGI in test [5] was determined as 3.02 µM; in test [1], 31.8 µM; in test [6] it was 6.33 µM; in [9], 3.36 µM; in [2], 29.3 µM; in [8], 3.74 µM. Further, the TGI in test [3] was determined as 0.763 µM; in test [11], 2.71 µM; in [12], 15.6 µM; in [4] it was 3.27 µM.

Turning to `C=C1C(=O)C[C@@]23CCC[C@@]12CC(OCOC)C3` (stereo partly drawn), the TGI in test [5] stood at 0.675 µM; in test [1] it was 17.8 µM; in [6] it was 6.94 µM; in [7], 4.76 µM; in [9] it was 12.5 µM; in test [2], 25.9 µM. Further, the TGI in test [8] is 3.87 µM; in [10], 6.65 µM; in test [11], 8.33 µM; in test [12] it was 22.5 µM.

As for `CC(C)CCC[C@@H](C)C1CCC2[C@@H]3CC=C4C[C@@H](C(=O)NCC[N+](C)(C)CCCS(=O)(=O)[O-])CC[C@]4(C)C3CC[C@@]21C` (stereo partly drawn), the TGI worked out at 23.6 µM in [5]; 30.9 µM in test [1]; 27.2 µM in test [6]; 28.3 µM in [7]; 31.1 µM in [9]; 42.9 µM in test [2]. The TGI in test [8] came to 25.2 µM; in test [10], 31.4 µM; in test [12], 37.4 µM.
